Measurements from patent US20240287046A1, “COMPOUNDS AND RADIOLIGANDS FOR TARGETING NEUROTENSIN RECEPTOR AND USES THEREOF” (Full-Life Technologies HK Limited, priority 2022, published 2024).

Legend:
[1] = tested on: pancreatic cancer patients; conditions: cited from earlier work
[2] = biological target: T1, human NTSR-1 (Homo sapiens (Human), UniProt P30989); assay: radioligand competitive binding assay using ^177Lu labeled C-1 as reference radioligand
Protocol: The binding affinities of test compounds were determined by a radioligand competitive binding assay using ^177Lu labeled C-1 as the reference radioligand.
Briefly, 100 μL HT-29 cells expressing human NTSR-1 at a density of 1˜2×10^6 cells/mL were mixed with binding buffer (RPMI-1640 medium supplemented with 0.25% bovine serum albumin) in each well of the 96-well filter plate (Millipore). Then the cells in each well were incubated with ^177Lu—C-1 (0.55 μCi/well) and the test compound under 37° C. for 1 hr (n=3). After incubation, unbound ^177Lu—C-1 and the test compound in each well was removed by filtration using a Multiscreen vacuum manifold (Millipore) and the cells were further rinsed with the binding buffer for 5 times. The cells from each well were then collected and radioactivity of the cells in each well was individually measured by y counter (2480 WIZARD2, PerkinElmer). The best-fit IC50 value of test compounds (inhibitory concentration when 50% of the bound ^177Lu—C-1 on cells were displaced) were calculated by fitting the data with nonlinear regression using GraphPad Prism 8.0.1.

[3] = biological target: T1, human NTSR-1; assay: FLIPR assay, inhibition of Neurotensin-induced intracellular-calcium mobilization; assay type: cell-based; conditions: HEK293 cells stably expressing human NTSR-1, mean; read-out: IC50 (nM) in FLIPR Assays
Protocol: Binding affinities of the representative compounds were also evaluated by FLIPR assay. Neurotensin receptor 1 belongs to the G-protein coupled receptors (GPCR) family. Activation of NTSR-1 by its ligand Neurotensin can induce intracellular-calcium mobilization. In FLIPR assay, the test compound and Neurotensin were incubated together with cells expressing NTSR-1 to measure inhibition of the intracellular-calcium mobilization by the test compound so that to evaluate its binding affinity.
Briefly, HEK293 cells stably expressing human NTSR-1 were plated in 384-well plates. 20 ul cell suspension at a concentration of 10×10^5 per ml was seeded in each well and incubated at 37° C. 5% CO2 overnight. Then the cells in each well were mixed with 20 ul probenecid assay buffer, 20 ul 8 uM Fluo-4 Direct™ Loading Buffer, 6×EC80 of Neurotensin and 10 μl of the diluted test compound, and incubated at 37° C. 5% CO2 for 50 min followed by incubation at room temperature for 10 min. The plate was then subject to FLIPR analysis.

[4] = tested on: ASPC-1 tumor-bearing mice; assay: Biodistribution of radionuclide labeled complexes in ASPC-1 tumor-bearing mice; assay type: in vivo, BALB/c nude mice
Procedure, shortened: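 BALB/c nude mice bore subcutaneous flank xenografts from ~4×10^6 NTSR-1-expressing cells, grown 2-4 weeks to ~0.05-0.50 g. Labeled compound, ~30-50 μCi (30-250 μCi/nmol specific activity) in 0.9% NaCl, was given by tail vein; organs were excised, weighed and γ-counted at various times for % ID and % ID/g.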

[5] = tested on: ASPC-1 tumor-bearing mice; assay: PET/CT imaging of ^68Ga-labeled complexes; assay type: in vivo; conditions: over 180 minutes
Protocol: ASPC-1 tumor-bearing mice were IV-injected with 150 μCi of ^68Ga-labeled compounds, anesthetized under 2% isoflurane/oxygen gas and placed on the scanner. PET images were acquired in one bed position for 10 min using an animal PET/SPECT/CT (Inliview-3000B). Whole-body PET images were acquired at 30, 60, 120 and 180 minutes after injection of the radiotracers.

T1 sequence (P30989 whole entry): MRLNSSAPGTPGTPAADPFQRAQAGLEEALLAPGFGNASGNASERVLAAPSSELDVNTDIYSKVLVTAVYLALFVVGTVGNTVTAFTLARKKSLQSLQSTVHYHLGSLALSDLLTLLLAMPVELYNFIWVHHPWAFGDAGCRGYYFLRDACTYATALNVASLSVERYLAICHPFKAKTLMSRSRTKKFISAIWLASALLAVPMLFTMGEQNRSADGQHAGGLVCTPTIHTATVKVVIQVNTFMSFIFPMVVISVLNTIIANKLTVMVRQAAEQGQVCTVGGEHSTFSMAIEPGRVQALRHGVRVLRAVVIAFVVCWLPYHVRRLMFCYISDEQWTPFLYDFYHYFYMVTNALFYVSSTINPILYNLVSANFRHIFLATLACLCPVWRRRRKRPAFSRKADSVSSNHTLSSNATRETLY

SMILES: COc1cccc(OC)c1-c1cc(C(=O)NC2(C(=O)O)C3CC4CC(C3)CC2C4)nn1-c1ccc(C(=O)N(C)CCCN(C)CCCN(C)C(=O)CN2CCN(CC(=O)O)CCN(CC(=O)O)CCN(CC(=O)O)CC2)cc1C(C)C (centres unmarked) [Compound C-2, 2,2′,2″-(10-(2-((3-((3-(4-(3-((2-carboxyadamantan-2-yl)carbamoyl)-5-(2,6-dimethoxyphenyl)-1H-pyrazol-1-yl)-3-isopropyl-N-methylbenzamido)propyl)(methyl)amino)propyl)(methyl)amino)-2-oxoethyl)-1,4,7,10-tetraazacyclododecane-1,4,7-triyl)triacetic acid, reference compound]
- tumor uptake of the radioligand ([1]; ^177Lu-chelated form, small number of pancreatic cancer patients): clearly observed
- Relative Binding Affinity ([2]; Mean IC50 of C-1/Mean IC50 of the test compound): 7.2
- potency relative to SR142948 ([2]; competitive radioligand binding assay using HT-29 cells): about 40%
- IC50 [3]: 45.4 nM
- AUC (0-72 h) ratio Tumor/Blood ([4]; ^177Lu-labeled complex): 9.0
- AUC (0-72 h) ratio Tumor/Kidney ([4]; ^177Lu-labeled complex): 8.80
- AUC (0-72 h) ratio Tumor/Liver ([4]; ^177Lu-labeled complex): 7.61
- AUC (0-72 h) ratio Tumor/Lung ([4]; ^177Lu-labeled complex): 14.2

SMILES: COc1cccc(OC)c1-c1cc(C(=O)NC2(C(=O)O)C3CC4CC(C3)CC2C4)nn1-c1ccc(N(CCCN(C)C)C(=O)COCCOCCNC(=O)CN2CCN(CC(=O)[O-])CCN(CC(=O)[O-])CCN(CC(=O)[O-])CC2)cc1C(C)C.[68Ga+3] (centres unmarked) [^68Ga—I-6]
- tumor uptake/retention compared to ^68Ga—C-5 (PET/CT) ([5]; ASPC-1 tumor-bearing mice): stronger tumor uptake/retention
- tumor to normal contrast compared to ^68Ga—C-5 (PET/CT) ([5]; such as tumor to liver): better tumor to normal contrast

SMILES: COc1cccc(OC)c1-c1cc(C(=O)NC2(C(=O)O)C3CC4CC(C3)CC2C4)nn1-c1ccc(C(=O)N(C)CCCN(C)CCCN(C)C(=O)CN2CCN(CC(=O)[O-])CCN(CC(=O)[O-])CCN(CC(=O)[O-])CC2)cc1C(C)C.[177Lu+3] (centres unmarked) [^177Lu-C-2, reference compound]
- dose limiting organ ([1]; human study): kidney
- % ID/g (1 h) Blood ([4]; Blood, 1 h): 13.87 ± 0.17 % ID/g
- % ID/g (4 h) Blood ([4]; Blood, 4 h): 4.46 ± 0.64 % ID/g
- % ID/g (24 h) Blood ([4]; Blood, 24 h): 0.31 ± 0.1 % ID/g
- % ID/g (72 h) Blood ([4]; Blood, 72 h): 0.09 ± 0.01 % ID/g
- % ID/g (1 h) Femur ([4]; Femur, 1 h): 1.34 ± 0.23 % ID/g
- % ID/g (4 h) Femur ([4]; Femur, 4 h): 0.89 ± 0.11 % ID/g
- % ID/g (24 h) Femur ([4]; Femur, 24 h): 0.22 ± 0.13 % ID/g
- % ID/g (72 h) Femur ([4]; Femur, 72 h): 0.12 ± 0.03 % ID/g
- % ID/g (1 h) Heart ([4]; Heart, 1 h): 4.83 ± 1.1 % ID/g
- % ID/g (4 h) Heart ([4]; Heart, 4 h): 1.72 ± 0.18 % ID/g
- % ID/g (24 h) Heart ([4]; Heart, 24 h): 0.37 ± 0.07 % ID/g
- % ID/g (72 h) Heart ([4]; Heart, 72 h): 0.16 ± 0.04 % ID/g
- % ID/g (1 h) Intestine ([4]; Intestine, 1 h): 1.98 ± 0.63 % ID/g
- % ID/g (4 h) Intestine ([4]; Intestine, 4 h): 1.62 ± 0.41 % ID/g
- % ID/g (24 h) Intestine ([4]; Intestine, 24 h): 0.44 ± 0.11 % ID/g
- % ID/g (72 h) Intestine ([4]; Intestine, 72 h): 0.15 ± 0.06 % ID/g
- % ID/g (1 h) Kidney ([4]; Kidney, 1 h): 3.34 ± 1.53 % ID/g
- % ID/g (4 h) Kidney ([4]; Kidney, 4 h): 2.6 ± 0.93 % ID/g
- % ID/g (24 h) Kidney ([4]; Kidney, 24 h): 1.36 ± 0.42 % ID/g
- % ID/g (72 h) Kidney ([4]; Kidney, 72 h): 0.46 ± 0.08 % ID/g
- % ID/g (1 h) Liver ([4]; Liver, 1 h): 2.01 ± 1.1 % ID/g
- % ID/g (4 h) Liver ([4]; Liver, 4 h): 2.51 ± 0.12 % ID/g
- % ID/g (24 h) Liver ([4]; Liver, 24 h): 1.53 ± 0.93 % ID/g
- % ID/g (72 h) Liver ([4]; Liver, 72 h): 0.99 ± 0.37 % ID/g
- % ID/g (1 h) Lung ([4]; Lung, 1 h): 3.67 ± 2.25 % ID/g
- % ID/g (4 h) Lung ([4]; Lung, 4 h): 1.92 ± 0.99 % ID/g
- % ID/g (24 h) Lung ([4]; Lung, 24 h): 0.69 ± 0.14 % ID/g
- % ID/g (72 h) Lung ([4]; Lung, 72 h): 0.23 ± 0.06 % ID/g
- % ID/g (1 h) Muscle ([4]; Muscle, 1 h): 0.93 ± 0.21 % ID/g
- % ID/g (4 h) Muscle ([4]; Muscle, 4 h): 0.31 ± 0.1 % ID/g
- % ID/g (24 h) Muscle ([4]; Muscle, 24 h): 0.1 ± 0.05 % ID/g
- % ID/g (72 h) Muscle ([4]; Muscle, 72 h): 0.06 ± 0.03 % ID/g
- % ID/g (1 h) Pancreas ([4]; Pancreas, 1 h): 0.8 ± 0.47 % ID/g
- % ID/g (4 h) Pancreas ([4]; Pancreas, 4 h): 0.27 ± 0.06 % ID/g
- % ID/g (24 h) Pancreas ([4]; Pancreas, 24 h): 0.1 ± 0.02 % ID/g
- % ID/g (72 h) Pancreas ([4]; Pancreas, 72 h): 0.07 ± 0.03 % ID/g
- % ID/g (1 h) Spleen ([4]; Spleen, 1 h): 1.25 ± 0.78 % ID/g
- % ID/g (4 h) Spleen ([4]; Spleen, 4 h): 0.49 ± 0.04 % ID/g
- % ID/g (24 h) Spleen ([4]; Spleen, 24 h): 0.35 ± 0.3 % ID/g
- % ID/g (72 h) Spleen ([4]; Spleen, 72 h): 0.34 ± 0.1 % ID/g
- % ID/g (1 h) Stomach ([4]; Stomach, 1 h): 1.35 ± 0.42 % ID/g
- % ID/g (4 h) Stomach ([4]; Stomach, 4 h): 0.6 ± 0.23 % ID/g
- % ID/g (24 h) Stomach ([4]; Stomach, 24 h): 0.15 ± 0.04 % ID/g
- % ID/g (72 h) Stomach ([4]; Stomach, 72 h): 0.05 ± 0 % ID/g
- % ID/g (1 h) Tumor ([4]; Tumor, 1 h): 10.34 ± 5.66 % ID/g
- % ID/g (4 h) Tumor ([4]; Tumor, 4 h): 16.13 ± 4.47 % ID/g
- % ID/g (24 h) Tumor ([4]; Tumor, 24 h): 12.6 ± 3.52 % ID/g
- % ID/g (72 h) Tumor ([4]; Tumor, 72 h): 8.03 ± 5.76 % ID/g
